Test results as given in PubChem BioAssay AID1159564 (GlaxoSmithKline (GSK), 2015).
Calls of active or inactive are those of the source. No rule for the calls is given here.

System: L. donovani-infected THP-1 macrophages, intracellular amastigote imaging
Experiment: antileishmanial activity in infected THP-1 macrophages – imaging, THP-1 host macrophages, host toxicity (AID 1159564)
[1] = measured here: THP-1 host cell toxicity
[2] = measured here: amastigotes per macrophage

## Cc1ccccc1NS(=O)(=O)c1ccc2[nH]cc(C(=O)NC3CCCC3)c(=O)c2c1
  IC50: > 50 µM (inactive)
[1]
  IC50: 32 µM
[2]
  IC50: 40 µM

## Cc1nc2c(-c3nc(-c4ccc(N)cc4)n[nH]3)cccn2c1C
  IC50: 2 µM
[1]
  IC50: 13 µM
[2]
  IC50: 1.6 µM

## CC(Cn1ccnc1)NC(=O)C=Cc1ccc(Cl)cc1 (centres undefined)
  IC50: > 50 µM (inactive)
[1]
  IC50: > 50 µM
[2]
  IC50: > 50 µM

## Oc1cccnc1-c1n[nH]c(Cc2ccccc2)n1
  IC50: 3.2 µM
[1]
  IC50: 16 µM
[2]
  IC50: 2 µM

## Cc1ccc(NC(=O)c2ccc(Cl)c(NC(=O)c3ccc([N+](=O)[O-])cc3)c2)cc1
  IC50: > 50 µM (inactive)
[1]
  IC50: > 50 µM
[2]
  IC50: > 50 µM

## CCCc1cc(C(=O)Nc2ncc(-c3cccc(Br)c3)n2C)n[nH]1
  IC50: 5 µM
[1]
  IC50: 32 µM
[2]
  IC50: 4 µM

## CS(=O)(=O)c1cccc(CNC(=O)c2cncc(N3CCN(c4ccc(F)cc4)CC3)c2)c1
  IC50: > 50 µM (inactive)
[1]
  IC50: > 50 µM
[2]
  IC50: > 50 µM

## CCOc1ccc(CN(C)Cc2nc(N)nc(Nc3ccc(C)cc3)n2)cc1
  IC50: 4 µM
[1]
  IC50: 40 µM
[2]
  IC50: 3.2 µM

## O=C(CN(Cc1ccccn1)Cc1ccccn1)NCc1ccc2c(c1)OCO2
  IC50: 7.9 µM
[1]
  IC50: > 79 µM
[2]
  IC50: 6.3 µM

## Cc1cc(C)nc(N2CCC(N(Cc3cccnc3)C(=O)c3cccc(C#N)c3)CC2)n1
  IC50: > 50 µM (inactive)
[1]
  IC50: > 50 µM
[2]
  IC50: > 50 µM

## CN1CCCN(C(=O)c2ccc(N3CCCC3)cc2Cl)CC1
  IC50: > 50 µM (inactive)
[1]
  IC50: > 50 µM
[2]
  IC50: > 50 µM

## CN(C)c1ncc(-c2cncn2CCOc2ccc(Cl)cc2)cn1
  IC50: > 50 µM (inactive)
[1]
  IC50: > 50 µM
[2]
  IC50: > 50 µM

## COc1cc(Nc2nccc(Nc3onc(C)c3C)n2)cc(S(=O)(=O)C2CCOCC2)c1
  IC50: > 50 µM (inactive)
[1]
  IC50: 40 µM
[2]
  IC50: 5 µM

## Cc1cc(C)n(-c2nc(NC(C)C)nc(NC(C)(C)C)n2)n1
  IC50: 5 µM
[1]
  IC50: 6.3 µM
[2]
  IC50: 4 µM

## NS(=O)(=O)c1ccc(CNC(=O)c2ccc([N+](=O)[O-])s2)cc1
  IC50: 25 µM
[1]
  IC50: 40 µM
[2]
  IC50: 13 µM

## Cc1cc2nc(N3CC[C@H]3C(N)=O)nc(Nc3cc(C4CC4)[nH]n3)c2s1
  IC50: 2 µM
[1]
  IC50: 0.79 µM
[2]
  IC50: 1.3 µM

## CCCCn1nnnc1CSc1nc(C)cc(C)c1C#N
  IC50: 4 µM
[1]
  IC50: > 50 µM
[2]
  IC50: 3.2 µM

## CCc1ccccc1[C@@H](C)NC(=O)c1cnc2c(cnn2CC)c1NC1CCN(C(N)=O)CC1
  IC50: > 50 µM (inactive)
[1]
  IC50: > 50 µM
[2]
  IC50: > 50 µM

## c1ccc2[nH]c(-c3ccc(N4CCCC4)nc3)nc2c1
  IC50: > 50 µM (inactive)
[1]
  IC50: 32 µM
[2]
  IC50: > 50 µM

## O=C(Nc1ccc(S(=O)(=O)N2CCCC2)cc1)c1ccc([N+](=O)[O-])s1
  IC50: 1.6 µM
[1]
  IC50: > 50 µM
[2]
  IC50: 1 µM

## O=C(NCCc1csc(-c2ccc(F)cc2)n1)c1ccco1
  IC50: > 50 µM (inactive)
[1]
  IC50: > 50 µM
[2]
  IC50: > 50 µM

## CN(Cc1ccccc1)Cc1nnnn1C1CCN(Cc2ccc(-n3ccnc3)cc2)CC1
  IC50: > 50 µM (inactive)
[1]
  IC50: 32 µM
[2]
  IC50: > 50 µM

## Cc1nc2c(-c3n[nH]c(-c4ccccc4N)n3)cccn2c1C
  IC50: 1.6 µM
[1]
  IC50: 7.9 µM
[2]
  IC50: 1 µM

## Cc1nc(-c2ccncc2)ncc1C(C)NC(=O)c1ccc(Cl)s1 (centres undefined)
  IC50: > 50 µM (inactive)
[1]
  IC50: > 50 µM
[2]
  IC50: > 50 µM

## O=C1CN(Cc2ccco2)C2CS(=O)(=O)CC2N1c1ccc(Cl)cc1 (centres undefined)
  IC50: > 50 µM (inactive)
[1]
  IC50: > 50 µM
[2]
  IC50: > 50 µM

## CS(=O)(=O)c1cccc(-c2cnc(N)c3c(-c4ccc(CO)cc4)csc23)c1
  IC50: 10 µM
[1]
  IC50: > 50 µM
[2]
  IC50: 7.9 µM

## CCCC(=O)N(Cc1ccccn1)c1nc2ccccc2s1
  IC50: > 50 µM (inactive)
[1]
  IC50: > 50 µM
[2]
  IC50: 10 µM

## CCN(CC)S(=O)(=O)c1ccc(OC)c(NC(=O)c2ccc([N+](=O)[O-])s2)c1
  IC50: > 50 µM (inactive)
[1]
  IC50: > 50 µM
[2]
  IC50: > 50 µM

## CN(C)CCN(C)Cc1ccc(Cl)cc1NS(=O)(=O)c1ccc(Cl)c(Cl)c1
  IC50: 6.3 µM
[1]
  IC50: 32 µM
[2]
  IC50: 4 µM

## CNC(=O)C1Cc2ccccc2N1C(=O)Cc1ccc(OC)cc1 (centres undefined)
  IC50: 7.9 µM
[1]
  IC50: 7.9 µM
[2]
  IC50: 13 µM

## Cc1cc(Br)cc(C(=O)c2c(C(C)C)c(=O)[nH]c(=O)n2Cc2ccnc(N)c2)c1
  IC50: 32 µM
[1]
  IC50: 40 µM
[2]
  IC50: 20 µM

## Cc1ccc2onc(Nc3ccnc(Nc4cccc(S(C)(=O)=O)c4)n3)c2c1
  IC50: 2 µM
[1]
  IC50: 20 µM
[2]
  IC50: 1 µM

## C[C@@H](Oc1cc(-n2cnc3ccc(O[C@H]4CCNC4)cc32)sc1C(N)=O)c1ccccc1Cl
  IC50: 7.9 µM
[1]
  IC50: 6.3 µM
[2]
  IC50: 5 µM

## COc1ncc(-c2ccc3nccc(-c4ccncc4)c3c2)cc1NS(=O)(=O)C1CC1
  IC50: 1.3 µM
[1]
  IC50: 1 µM
[2]
  IC50: 0.32 µM

## OCC1CCCCN1c1cc(-c2ccccn2)nc(Nc2ccccc2)n1 (centres undefined)
  IC50: 1.3 µM
[1]
  IC50: 20 µM
[2]
  IC50: 1 µM

## Cc1nn(-c2ccccc2)nc1CNC(=O)CN(Cc1ccccn1)Cc1ccccn1
  IC50: 5 µM
[1]
  IC50: 63 µM
[2]
  IC50: 5 µM

## CCOc1ccc(N(C)S(=O)(=O)c2ccc3[nH]cc(C(=O)NC4CCCC4)c(=O)c3c2)cc1
  IC50: 32 µM
[1]
  IC50: 25 µM
[2]
  IC50: 32 µM

## O=C(CN1CCC2(O)CCCCC2C1c1ccc2c(c1)OCO2)Nc1ccc(Cl)cc1Cl (centres undefined)
  IC50: 3.2 µM
[1]
  IC50: > 50 µM
[2]
  IC50: 1.3 µM

## Cc1cc(C#N)c([N+](=O)[O-])cc1Br
  IC50: 40 µM
[1]
  IC50: 25 µM
[2]
  IC50: 32 µM

## COc1cc(NC(=O)Nc2cccc(CNC(=O)OC3CCCCC3)c2)ccc1-c1cnco1
  IC50: > 50 µM (inactive)
[1]
  IC50: 10 µM
[2]
  IC50: 20 µM

## Nc1nccc(-c2csc(Nc3ccc(Cl)cc3)n2)n1
  IC50: 1 µM
[1]
  IC50: > 50 µM
[2]
  IC50: 1 µM

## O=C(c1cccc(Nc2ncc(-c3ccc4c(c3)OCO4)cn2)c1)N1CCSC1
  IC50: 2 µM
[1]
  IC50: 13 µM
[2]
  IC50: 1 µM

## Cc1cccc(Nc2nc(-c3ccccn3)cs2)n1
  IC50: 3.2 µM
[1]
  IC50: > 50 µM
[2]
  IC50: 2 µM

## CCN(Cc1cccs1)C(=O)CSc1nnc(-c2ccc3c(c2)OCO3)o1
  IC50: 2 µM
[1]
  IC50: > 50 µM
[2]
  IC50: 2 µM

## COc1ncc(-c2ccc3nccc(-c4ccncc4)c3c2)cc1NS(C)(=O)=O
  IC50: 2.5 µM
[1]
  IC50: 3.2 µM
[2]
  IC50: 0.63 µM

## O=C1CN(C2CCCc3c(OCc4ccncc4)cccc32)C(=O)N1C1CCCCC1 (centres undefined)
  IC50: > 50 µM (inactive)
[1]
  IC50: > 50 µM
[2]
  IC50: > 50 µM

## Cc1ccc(NC(C)C(=O)Nc2ccc(C#N)cc2)cc1S(=O)(=O)N1CCCCC1 (centres undefined)
  IC50: 10 µM
[1]
  IC50: 50 µM
[2]
  IC50: 5 µM

## COC(=O)c1ccc(-c2cnc3ccc(NCc4ccccn4)nn23)cc1
  IC50: > 50 µM (inactive)
[1]
  IC50: 13 µM
[2]
  IC50: 16 µM

## N#Cc1ccc(Br)cc1[N+](=O)[O-]
  IC50: 20 µM
[1]
  IC50: 25 µM
[2]
  IC50: 13 µM

## CCC(=O)Nc1ccc(-c2nc3ccc(Cl)cc3[nH]2)cc1
  IC50: > 50 µM (inactive)
[1]
  IC50: > 50 µM
[2]
  IC50: > 50 µM

## CN(Cc1nc2c(C(=O)N3CCN(Cc4ccccc4)CC3)cccc2[nH]1)C1CCCc2cccnc21 (centres undefined)
  IC50: 1.3 µM
[1]
  IC50: 10 µM
[2]
  IC50: 0.79 µM

## O=c1[nH]c(C=Cc2cccc(OCCOc3ccccc3)c2)nc(O)c1[N+](=O)[O-]
  IC50: > 50 µM (inactive)
[1]
  IC50: > 50 µM
[2]
  IC50: > 50 µM

## CCCc1cc(N)nc(-c2cc(CCC)cc(N)n2)c1
  IC50: 2.5 µM
[1]
  IC50: 20 µM
[2]
  IC50: 1.6 µM

## COc1ccc(NS(=O)(=O)c2cc(-c3cc(C)[nH]n3)ccc2C)cc1OC
  IC50: 10 µM
[1]
  IC50: > 50 µM
[2]
  IC50: 7.9 µM

## COc1cc(-c2noc(CC#N)n2)ccc1OC(F)F
  IC50: > 50 µM (inactive)
[1]
  IC50: 50 µM
[2]
  IC50: > 50 µM

## O=C(Cn1cnc([N+](=O)[O-])n1)Nc1ccc(Cl)cc1C(=O)c1ccccc1
  IC50: > 50 µM (inactive)
[1]
  IC50: > 50 µM
[2]
  IC50: > 50 µM

## O=c1[nH]ccc2ccc(-c3ccncc3)cc12
  IC50: > 50 µM (inactive)
[1]
  IC50: 40 µM
[2]
  IC50: 20 µM

## CC(C)S(=O)(=O)c1ccc(-c2cnc(N)c3cc(-c4ccnc(N)n4)ccc23)cc1
  IC50: 1.3 µM
[1]
  IC50: 2.5 µM
[2]
  IC50: 0.5 µM

## COc1cc(C2SCC(=O)Nc3c2c(C)nn3-c2nc3ccccc3s2)cc(OC)c1O (centres undefined)
  IC50: 0.32 µM
[1]
  IC50: > 50 µM
[2]
  IC50: 0.25 µM

## N#Cc1cccc(CN2CCC(N(Cc3cccnc3)C(=O)c3cc(F)c(F)cc3F)CC2)c1
  IC50: > 50 µM (inactive)
[1]
  IC50: > 50 µM
[2]
  IC50: 13 µM

## CCN(CC)S(=O)(=O)c1ccc(Cn2nc(C(=O)Nc3ccncn3)c3ccccc32)cc1
  IC50: > 50 µM (inactive)
[1]
  IC50: > 50 µM
[2]
  IC50: > 50 µM

## COc1cccc(CCNC(=O)C(c2cn[nH]c2)N2CCN(c3ccc(Cl)cc3)CC2)c1 (centres undefined)
  IC50: 20 µM
[1]
  IC50: 25 µM
[2]
  IC50: 10 µM

## COCc1cnc2c(c1SCc1c(F)cccc1Cl)c(=O)n(C)c(=O)n2C
  IC50: 5 µM
[1]
  IC50: > 50 µM
[2]
  IC50: 5 µM

## O=C(Nc1ccc(C(F)(F)F)cc1)NC1(C(=O)NCc2ccco2)CCCCC1
  IC50: > 50 µM (inactive)
[1]
  IC50: 32 µM
[2]
  IC50: > 50 µM

## O=C(Nc1nccs1)c1ccccc1Cn1cc([N+](=O)[O-])cn1
  IC50: > 50 µM (inactive)
[1]
  IC50: > 50 µM
[2]
  IC50: > 50 µM

## CCNc1cc(-c2ccccn2)nc(Nc2ccc(OC)cc2)n1
  IC50: 0.5 µM
[1]
  IC50: 25 µM
[2]
  IC50: 0.4 µM

## Cc1nn(-c2nc(N)nc(-c3ccccn3)n2)c(N)c1-c1ccccc1
  IC50: 3.2 µM
[1]
  IC50: 20 µM
[2]
  IC50: 2 µM

## CCOC(=O)c1noc(N)c1-c1ccccc1
  IC50: > 50 µM (inactive)
[1]
  IC50: > 50 µM
[2]
  IC50: > 50 µM
